Reference: paper PMC11876601 (Molecular Systems Biology, 2025)
Several values for one entry are separate records, joined by “and”; a condition that tells them apart may be missing. Identical values can stand only once. Like-named read-outs stand apart in the source and are kept apart here.

Tests used:
[1] = target: all target kinases identified with the Kinobeads technology; assay: Kinobeads competition pulldown in AsPC-1 lysate, all kinases; assay type: binding, human; conditions: all targets other than ATR and ACVR2; read-out: KDapp of all other targets
Protocol: This was followed by incubation with Kinobeads ε (17.5 µl of settled beads) for 30 min at 4 °C to enrich kinases. […] Enriched proteins were reduced with 50 mM DTT in 8 M urea, 40 mM Tris-HCl, pH 7.4 for 30 min at room temperature, and alkylated with 55 mM chloroacetamide. After reducing the urea concentration to 1–2 M, proteins were digested with trypsin at 37 °C for 16 h. Subsequently, eluted peptides were desalted using SepPak tC18 µElution plates (Waters), freeze-dried by vacuum centrifugation, and stored at −20 °C.
For LC-MS/MS, dried peptides were reconstituted in 0.1% formic acid and analyzed on a Dionex Ultimate3000 nano HPLC (Thermo Scientific) coupled to an Orbitrap Fusion Tribrid mass spectrometer (Thermo Scientific), which was run in data-dependent mode. […]
Oxidized methionine and N-terminal acetylation were set as variable modification, and cysteine carbamidomethylation was set as fixed modification. Label-free quantification (LFQ) and match-between-runs were enabled. […]
Proteins were filtered by potential contaminants, reversed hits and proteins identified only by site. Residual binding of proteins was calculated from LFQ intensities as the ratio between drug doses and vehicle. […] Only kinases quantified with at least 4 unique peptides in the vehicle experiment were considered. […]

IGF1R = target: IGF1R; parameters: method as in Reinecke et al. (2023); conditions: 5 cell line mix lysate, Kinobeads ε, ref Reinecke et al. (2023), cited from earlier work
[2] = system: nine PDAC patient-derived organoids (PDOs); assay: PDO viability assay (CellTiter-Glo, 72 h), panel; assay type: cell-based; conditions: Homo sapiens; range among the nine PDOs; read-out: EC50 (monotherapy)
Protocol: Primary patient-derived PDAC organoid (PDO) experiments were performed in the laboratories of Prof. Maximilian Reichert (University Hospital of the TU Munich, Germany, PDO set 1: B250, B535, B678) and Prof. Jens T. Siveke (University Hospital Essen, Germany; PDO set 2: UME008, UME012, UME051, UME053, UME060, UME061). PDOs were generated from surgical resection, EUS-guided fine needle biopsy (EUS-FNB), or ascites (Appendix Table S2). Surgical specimens were first minced with a sterile scalpel and subsequently washed with Anti-Anti solution and washing medium (PDO set 1), or vice versa (PDO set 2; Appendix Table S3). Biopsy samples were directly washed with an Anti-Anti solution and washing medium. Samples were digested using 1 ml of digestion medium at 37 °C while shaking, and the enzymatic reaction was stopped by adding 15 ml of washing medium (Appendix Table S3). […]
For viability assays in PDOs, confluent organoids were removed from medium, and Matrigel was dissolved by adding 200 μl (PDO set 1) or 2 ml (PDO set 2) of Cell Recovery Solution (Corning), and additionally 500 μl of DPBS (PDO set 1 only). […] After 72 h, cell viability was measured using the CellTiter-Glo Luminescent Cell Viability Assay (Promega) diluted 1:5 in the final volume of the well. […]

PDO UME053 = assay: PDO viability assay (CellTiter-Glo, 72 h); assay type: cell-based, human; parameters: Curve top / Curve bottom: scale not given here;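 as to Curve top: fraction of plate-wise median vehicle signal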
Protocol: Primary patient-derived PDAC organoid (PDO) experiments were performed in the laboratories of Prof. Maximilian Reichert (University Hospital of the TU Munich, Germany, PDO set 1: B250, B535, B678) and Prof. Jens T. Siveke (University Hospital Essen, Germany; PDO set 2: UME008, UME012, UME051, UME053, UME060, UME061). PDOs were generated from surgical resection, EUS-guided fine needle biopsy (EUS-FNB), or ascites (Appendix Table S2). Surgical specimens were first minced with a sterile scalpel and subsequently washed with Anti-Anti solution and washing medium (PDO set 1), or vice versa (PDO set 2; Appendix Table S3). Biopsy samples were directly washed with an Anti-Anti solution and washing medium. Samples were digested using 1 ml of digestion medium at 37 °C while shaking, and the enzymatic reaction was stopped by adding 15 ml of washing medium (Appendix Table S3). If samples of PDO set 1 were blood-stained, tissue pellets were first incubated with ACK lysing buffer/red blood cells lysis buffer (Thermo Fisher Scientific) for 5 min and then digested using TrypLE (Thermo Fisher Scientific). The reversed procedure was applied for blood-stained samples of PDO set 2. For PDO generation from ascites, the material was first spun down at 500 × g for 5 min. Then, washing medium was added and the suspension was centrifuged at 300 × g for 5 min. If the pellet was blood-stained, ACK lysis buffer was added and incubated at room temperature.
For viability assays in PDOs, confluent organoids were removed from medium, and Matrigel was dissolved by adding 200 μl (PDO set 1) or 2 ml (PDO set 2) of Cell Recovery Solution (Corning), and additionally 500 μl of DPBS (PDO set 1 only). Samples were transferred into a falcon and incubated on ice for 30 min, followed by centrifugation at 300 × g at 4 °C for 5 min (after adding 10 ml washing medium for PDO set 2). Subsequently, TrypLE Express Enzyme (Thermo Fisher) was added to cell pellets and incubated for 2 × 5 min at 37 °C. The enzymatic reaction was quenched by DPBS (PDO set 1) or washing medium (PDO set 2), and samples were washed by centrifugation at 300 × g at 4 °C for 5 min. Five hundred cells/well were seeded in 384-well plates (Corning) in 50 μl of PDO medium containing 10% Matrigel. To allow PDO generation, cells were incubated for 4 days at 37 °C and 5% CO2. […] Experiments were pipetted manually (PDO set 1) or automatically using a TECAN D300e Digital Dispenser (HP; PDO set 2). Treatments were performed in eight replicates, except for PDO PPES045 (quadruplicates). After 72 h, cell viability was measured using the CellTiter-Glo Luminescent Cell Viability Assay (Promega) diluted 1:5 in the final volume of the well. After 20 min of incubation at room temperature under gentle shaking, the acquisition was performed in the microplate reader VantaSTAR (BMG Labtech) using 3000 gain for the amplification measurement of a detected signal (PDO set 1) or the Spark Multimode microplate reader (TECAN) at 800 ms integration time (PDO set 2).

[3] = PDO UME053, GEM + Elimusertib (ATRi) dose1, per replicate
[4] = PDO UME053, GEM + Elimusertib (ATRi) dose2, per replicate
[5] = PDO UME053, GEM + Elimusertib (ATRi) dose3, per replicate
[6] = PDO UME053, GEM alone, per replicate
[7] = PDO UME053, experiment GEM (GEM alone), curve fit

**Q.** With CNCc1ccc(-c2cc(-c3nc(-c4ccc(S(=O)(=O)C(C)C)cc4)cnc3N)on2)cc1 [Berzosertib] as the molecule, how does the Kd [1] read?
**A.** > 10 nM

**Q.** What does the source list for COc1cc(N2CCC(N3CCN(C)CC3)CC2)ccc1Nc1ncc(Cl)c(Nc2ccccc2P(C)(C)=O)n1 [Brigatinib]?
**A.** Kd (IGF1R; read-out: KDapp): 1320 nM; EC50 (IGF1R): 2000 nM; pKDapp (IGF1R): 5.88

**Q.** With Nc1ccn([C@@H]2O[C@H](CO)[C@@H](O)C2(F)F)c(=O)n1 [GEM, Gemcitabine] as the molecule, how does the EC50 [2] read?
**A.** 3 to 285 nM

**Q.** And the EC50 (PDO UME053; Homo sapiens, PDO UME053, GEM + Elimusertib (ATRi) dose1, mean of replicates, read-out: EC50 mean)?
**A.** 3.76 nM

**Q.** And the EC50 (PDO UME053; Homo sapiens, PDO UME053, GEM + Elimusertib (ATRi) dose1, per replicate, read-out: EC50)?
**A.** 4.76 nM

**Q.** And the EC50 (PDO UME053; Homo sapiens, PDO UME053, GEM + Elimusertib (ATRi) dose1, per replicate, read-out: pEC50 (converted))?
**A.** 4.79 nM

**Q.** What about the EC50 (PDO UME053; Homo sapiens, PDO UME053, GEM + Elimusertib (ATRi) dose2, mean of replicates, read-out: EC50 mean) of the same molecule?
**A.** 2.48 nM

**Q.** And the EC50 (PDO UME053; Homo sapiens, PDO UME053, GEM + Elimusertib (ATRi) dose3, mean of replicates, read-out: EC50 mean)?
**A.** 2.58 nM

**Q.** And the EC50 (PDO UME053; Homo sapiens, PDO UME053, GEM alone, mean of replicates, read-out: EC50 mean)?
**A.** 3.83 nM

**Q.** And the EC50 (PDO UME053; Homo sapiens, PDO UME053, GEM alone, per replicate, read-out: EC50)?
**A.** 4.9 nM

**Q.** What about the EC50 (PDO UME053; Homo sapiens, PDO UME053, GEM alone, per replicate, read-out: pEC50 (converted)) of the same molecule?
**A.** 4.9 nM

**Q.** And the EC50 (PDO UME053; Homo sapiens, PDO UME053, GEM alone, read-out: EC50 mean)?
**A.** 3.8 nM

**Q.** And the EC50 (PDO UME053; Homo sapiens, PDO UME053, experiment GEM (GEM alone), mean of replicates, read-out: EC50 mean)?
**A.** 3.83 nM

**Q.** What about the EC50 (PDO UME053; Homo sapiens, PDO UME053, experiment GEM (GEM alone), single replicates, read-out: pEC50 (converted)) of the same molecule?
**A.** 5.75 nM

**Q.** What about the EC50 (PDO UME053; Homo sapiens, SET-2, PDO UME053, PDO set 2, experiment GEM (GEM alone), single replicates, read-out: EC50) of the same molecule?
**A.** 5.76 nM

**Q.** What about the Curve bottom (PDO UME053; [3]) of the same molecule?
**A.** 4.76 and 3.51 and 3.42 and 4.59 and 3.68 and 3.05

**Q.** What about the Curve slope (PDO UME053; [3]) of the same molecule?
**A.** -0.0232 and -0.0231 and -0.0214 and -0.0351 and 0.00541 and -0.00734

**Q.** What about the Curve top (PDO UME053; [3]) of the same molecule?
**A.** 1.03 and 0.94

**Q.** And the pEC50 (PDO UME053; [3])?
**A.** 8.45 and 8.47 and 8.34 and 8.43 and 8.52

**Q.** And the EC50 (PDO UME053; PDO UME053, GEM + Elimusertib (ATRi) dose1, per replicate, read-out: EC50)?
**A.** 3.51 nM and 3.42 nM and 4.59 nM and 3.68 nM and 3.05 nM

**Q.** What about the Curve bottom (PDO UME053; [4]) of the same molecule?
**A.** 3.13 and 3.73 and 2.51 and 1.19 and 1.27

**Q.** What about the Curve slope (PDO UME053; [4]) of the same molecule?
**A.** -0.0242 and -0.026 and -0.0173 and -0.00205 and -0.00262

**Q.** What about the Curve top (PDO UME053; [4]) of the same molecule?
**A.** 1.01 and 0.93 and 0.97 and 0.99

**Q.** What about the pEC50 (PDO UME053; [4]) of the same molecule?
**A.** 8.50 and 8.43 and 8.60 and 8.92 and 8.90

**Q.** What about the EC50 (PDO UME053; PDO UME053, GEM + Elimusertib (ATRi) dose2, per replicate, read-out: EC50) of the same molecule?
**A.** 3.13 nM and 3.73 nM and 2.51 nM and 1.19 nM and 1.27 nM

**Q.** And the Curve bottom (PDO UME053; [5])?
**A.** 2.72 and 2.86 and 2.18 and 1.18 and 1.85

**Q.** And the Curve slope (PDO UME053; [5])?
**A.** -0.02 and -0.027 and -0.013 and -0.0115

**Q.** And the Curve top (PDO UME053; [5])?
**A.** 0.85 and 0.95 and 0.90

**Q.** And the pEC50 (PDO UME053; [5])?
**A.** 8.56 and 8.54 and 8.66 and 8.93 and 8.73

**Q.** And the EC50 (PDO UME053; PDO UME053, GEM + Elimusertib (ATRi) dose3, per replicate, read-out: EC50)?
**A.** 2.72 nM and 2.86 nM and 2.18 nM and 1.18 nM and 1.85 nM

**Q.** What about the Curve bottom (PDO UME053; [6]) of the same molecule?
**A.** 4.90 and 3.43 and 2.87 and 2.77 and 4.39 and 2.68

**Q.** What about the Curve slope (PDO UME053; [6]) of the same molecule?
**A.** -0.0183 and 6.71e-5 and 0.00446 and -0.00144 and 0.00242 and 0.00525

**Q.** What about the Curve top (PDO UME053; [6]) of the same molecule?
**A.** 1.30 and 1.34

**Q.** What about the pEC50 (PDO UME053; [6]) of the same molecule?
**A.** 8.46 and 8.54 and 8.56 and 8.36 and 8.57

**Q.** What about the EC50 (PDO UME053; PDO UME053, GEM alone, per replicate, read-out: EC50) of the same molecule?
**A.** 3.43 nM and 2.87 nM and 2.77 nM and 4.39 nM and 2.68 nM

**Q.** What about the EC50 (PDO UME053; PDO UME053, PDO set 2, experiment GEM (GEM alone), single replicates, read-out: EC50) of the same molecule?
**A.** 3.82 nM

**Q.** What about the Curve bottom (PDO UME053; [7]) of the same molecule?
**A.** 5.76 and 3.82

**Q.** What about the Curve top (PDO UME053; [7]) of the same molecule?
**A.** 0.62

**Q.** And the pEC50 (PDO UME053; PDO UME053, experiment GEM (GEM alone), single replicates)?
**A.** 8.42
